Measured values: US8530507B2, “Use of levo-ornidazole in the preparation of anti-anaerobic bacteria infection drugs” (priority 2005, dated 2013)
Read-outs that look alike come from different tables or passages of the source.

Legend:
Kunming mice = test: Acute toxicology test, LD50 in mice (Bliss method); format: in vivo; settings: oral gavage; for Number of dead animals: 10 animals; for Probability units (Y): 1600 mg/kg
mice [1] = test: Effects on spontaneous activities in mice; format: in vivo; settings: for spontaneous activity compared with the vehicle control group: recorded at 0.5, 1, 2, 3 and 4 hours
Protocol: Chlorpromazine was administered at dose of […] in the positive control group, and the same volume of propylene glycol containing 0.9% sodium chloride injection was administered in the vehicle control group. Spontaneous activity was recorded at 0.5, 1, 2, 3 and 4 hours after drug administration. The injection volume was 0.2 ml/10 g and the administration rate was 0.2 ml/10 sec.

mice [2] = test: Hypnotic effect of intravenous injection in mice (righting reflex); format: in vivo
Protocol: White mice, half males and half females, fasted for eight hours. The disappearance of righting reflex in mice was observed. The number of animals who lost their righting reflex was recorded in 30 minutes after drug administration.

Beagle dogs = settings: dog, in vivo, iv, 200 mg/kg
Text: 2. Toxicity Test in Beagle Dogs (Non-Rodent) After Intravenous Administration of L-ornidazole for Two Weeks
Beagle dogs, 4 dogs in each group with half females and half males, were divided into L-, D-, and racemic ornidazole groups.

mice [3] = settings: mouse, in vivo, 40 mg/kg
Protocol: The same volume of 0.9% sodium chloride injection containing propylene glycol was administered in the vehicle control group. 30 minute after drug administration, 40 mg/kg of sodium thiopental was administered to mice by intraperitoneal injection. The time for the loss of righting reflex and the time for the recovery were recorded. The injection volume was 0.2 ml/10 g, the administration rate was 0.2 ml/10 sec.

[4] = Acute toxicology test, LD50 in mice (Bliss method); format: in vivo; settings: both sexes, Kunming, mouse, in vivo, read-out: 95% confidence interval (CI) of LD50
Protocol: Kunming mice, half males and half females, with body weights of 18˜22 g, were administered the testing drug solution by injection 8 hours after fasting. The death status of animals was consecutively observed for 14 days after administration.

Structure (SMILES)	Number of dead animals (Kunming mice; 655.4 mg/kg)	Number of dead animals (Kunming mice; 819.2 mg/kg)	Number of dead animals (Kunming mice; 1024 mg/kg)	Death rate (Kunming mice; 1280 mg/kg) [%]	Number of dead animals (Kunming mice; 1280 mg/kg)	Probability units (Y) (Kunming mice)	spontaneous activity compared with the vehicle control group (mice [1]; 40 mg/kg intravenous)	recovery of spontaneous activity (mice [1]; 80 mg/kg intravenous)	spontaneous activity compared with the vehicle control group (mice [1]; 80 mg/kg intravenous)	recovery of spontaneous activity (mice [1]; 160 mg/kg intravenous)	spontaneous activity compared with the vehicle control group (mice [1]; 160 mg/kg intravenous)	further results
Cc1ncc([N+](=O)[O-])n1C[C@H](O)CCl [L-ornidazole, 1-(3-chloro-2-S-(−)-hydroxypropyl)-2-methyl-5-nitroimidazole]	0	1	4	80	8	6.96	significant reduction in spontaneous activity was not observed	gradually become normal after 2 hours	reduced significantly at 0.5 and 1 hour	gradually become normal after 3 hours	reduced significantly at 0.5, 1 and 2 hours	number of mice with loss in righting reflex (mice [2]; mice, individual dose of 160 mg/kg intravenous, within 30 minutes): No loss in righting reflex; loss in righting reflex (mice [2]; mice, individual dose of 40 or 80 mg/kg intravenous, within 30 minutes): No loss in righting reflex; food intake and body weight (Beagle dogs): Food intake of testing animals was inhibited while body weight of the testing animals was inhibited to a certain extent; histological examination of organs (Beagle dogs): Significant pathological changes were not found; manifestations (toxicity and side effects) (Beagle dogs): merely drooling, vomiting, involuntary urination and the like; recovery time of manifestations (Beagle dogs): 1 to 2 h; toxic effects (Beagle dogs): significant toxic effects were not observed
Cc1ncc([N+](=O)[O-])n1CC(O)CCl (racemic) [racemic ornidazole, ornidazole]	0	2	7	90	9	7.19	reduced significantly 1 hour after administration	gradually become normal after 3 hours	reduced significantly at 0.5, 1 and 2 hours	gradually become normal after 4 hours	reduced significantly at 0.5, 1, 2 and 3 hours	recovery of spontaneous activity (mice [1]; 40 mg/kg intravenous): gradually become normal after 2 hours; number of mice with loss in righting reflex (mice [2]; both, mouse, in vivo, iv, 160 mg/kg, 30 min): 6 mice; number of Purkinje cells in cerebellum (histological examination) (Beagle dogs): No reduction in the number of Purkinje cells and cellular degeneration was observed; duration of sleeping induced by sodium thiopental, compared with the vehicle control group (mice [3]): significantly extended; LD50 at 14 days ([4]; intravenous injection): 272 to 346 mg/kg; LD50 at 14 days ([4]; ip, intraperitoneal injection): 1030 to 1210 mg/kg; LD50 at 14 days ([4]; oral gavage): 674 to 878 mg/kg
